Measurements taken from the NIST ThermoML archive (doi:10.1016/j.fluid.2008.04.014).
± gives the expanded uncertainty stated by the source.

Assay: not given
Settings: 293.15 K; 101.33 kPa; Liquid; Vibrating tube method

mass density [kg/m3]	Structure (SMILES)
988.3 ± 0.3	CCC(=O)O [propanoic acid]
1044.7 ± 0.3	CC(=O)O [acetic acid]

Further lines, the compound ahead of its results:

Structure (SMILES)	mass density [kg/m3]
COC(=O)/C=C\C(=O)OC [dimethyl cis-butenedioate]	1160.8 ± 0.4
O=CO [formic acid]	1221.1 ± 0.4

Same assay, conditions: Liquid; Manometric method

Normal boiling temperature [°C]	Structure (SMILES)
141.20 ± 0.4	CCC(=O)O [propanoic acid]
117.90 ± 0.4	CC(=O)O [acetic acid]

Second part, the compound before the results:

Structure (SMILES)	Normal boiling temperature [°C]
COC(=O)/C=C\C(=O)OC [dimethyl cis-butenedioate]	202.00 ± 1
O=CO [formic acid]	101.00 ± 1

Assay: refractive index (Na D-line) (dimensionless)
Settings: 293.15 K; 101.33 kPa; Liquid; Standard Abbe refractometry

refractive index	Structure (SMILES)
1.391 ± 0.0011	CCC(=O)O [propanoic acid]
1.3719 ± 0.0011	CC(=O)O [acetic acid]

Further lines, the compound ahead of its results:

Structure (SMILES)	refractive index
COC(=O)/C=C\C(=O)OC [dimethyl cis-butenedioate]	1.4415 ± 0.0011
O [water]	1.3334 ± 0.001
O=CO [formic acid]	1.3709 ± 0.0011
